Assay results taken from the supplement of paper PMC7108870.

How the values were obtained:
HEK293sieSTAT3(Y640F) [1] = test: drug sensitivity score (DSS), cytotoxicity CellTox Green (DSS (dimensionless)); higher = more cytotoxic; extreme values may be limits of the assay; conditions: 72 h; STAT3 variant: Y640F (constitutively active)
Summary of the method: (§1)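 Each value is one representative of two experiments in which HEK293 cells overexpressing wild-type or mutant STAT3 with a STAT3-dependent luciferase reporter were exposed to compounds at 5 concentrations (10-fold dilutions) for 72 hours at 37°C and 5% CO2. Readouts were CellTox Green fluorescence and then CellTiter-Glo luminescence, normalised to negative and positive control wells. The drug sensitivity score was based on the dose-response curve area and computed in Breeze.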

HEK293sieSTAT3(wt) [2] = test: as above; conditions: 72 h; STAT3 variant: wild type
Summary of the method: as §1

HEK293sieSTAT3(Y640F) [3] = test: drug sensitivity score (DSS), viability CellTiter-Glo (DSS (dimensionless)); higher = more growth inhibition; extreme values may be limits of the assay; conditions: 72 h; STAT3 variant: Y640F (constitutively active)
Summary of the method: as §1

HEK293sieSTAT3(wt) [4] = test: as above; conditions: 72 h; STAT3 variant: wild type
Summary of the method: as §1

| Structure (SMILES) | drug sensitivity score (HEK293sieSTAT3(Y640F) [1]) | drug sensitivity score (HEK293sieSTAT3(wt) [2]) | drug sensitivity score (HEK293sieSTAT3(Y640F) [3]) | drug sensitivity score (HEK293sieSTAT3(wt) [4]) |
| --- | --- | --- | --- | --- |
| CC(C)(C)C[C@@H]1N[C@@H](C(=O)N[C@H]2CC[C@H](O)CC2)[C@H](c2cccc(Cl)c2F)[C@]12C(=O)Nc1cc(Cl)ccc12 (top concentration tested 10000 nM) | 2.22 | 2.72 | 3.68 | 4.33 |
| CCNC(=O)C[C@@H]1N=C(c2ccc(Cl)cc2)c2cc(OC)ccc2-n2c(C)nnc21 (top concentration tested 10000 nM) | 0.87 | 5.42 | 9.51 | 4.81 |
| CCc1cc(Nc2nccc(-c3c(-c4ccc(OC)c(C(=O)Nc5c(F)cccc5F)c4)nc4ccccn34)n2)c(OC)cc1N1CCC(N2CCN(S(C)(=O)=O)CC2)CC1 (top concentration tested 10000 nM) | 0 | 0 | 10.9 | 9.73 |
| CCc1cncnc1N1CCN(Cc2nc3ccc(C(F)(F)F)cc3[nH]2)CC1 (top concentration tested 10000 nM) | 1.05 | 0.48 | 2.33 | 1.35 |
| CCn1c(-c2nonc2N)nc2cnc(Oc3cccc(NC(=O)c4ccc(OCCN5CCOCC5)cc4)c3)cc21 (top concentration tested 10000 nM) | 0.98 | 1.34 | 7.47 | 6.32 |
| CN(c1ccccc1CNc1nc(Nc2ccc3c(c2)CC(=O)N3)ncc1C(F)(F)F)S(C)(=O)=O (top concentration tested 10000 nM) | 1.46 | 6.16 | 10.1 | 11.2 |
| CNc1ncc2cc(-c3cc(NC(=O)NCCC(C)(C)C)c(F)cc3C)c(C)nc2n1 (top concentration tested 10000 nM) | 0 | 0.9 | 5.64 | 3.99 |
| COc1ccc(Cn2ccc3ccc(C(=O)NO)cc32)cc1 (top concentration tested 10000 nM) | 0 | 0 | 2.79 | 3.02 |
| N#Cc1ccc(COC[C@H]2O[C@@H](n3c(NCc4ccc(Cl)c(Cl)c4)nc4c(N)ncnc43)[C@H](O)[C@@H]2O)cc1 (top concentration tested 10000 nM) | 0 | 0.11 | 4.87 | 3.11 |
| NC[C@@](O)(c1ccc(Cl)cc1)c1ccc(-c2cn[nH]c2)cc1 (top concentration tested 10000 nM) | 6.08 | 6.61 | 7.85 | 6.8 |
| Nc1ncnc2c1c(COc1cccc(Cl)c1)nn2C1CCOCC1 (top concentration tested 10000 nM) | 0 | 0 | 0 | 0.14 |
| O=C(NC[C@H](O)CN1CCc2ccccc2C1)c1cc(NC2COC2)ncn1 (top concentration tested 10000 nM) | 0 | 0 | 0 | 0 |
| O=C(O)c1ccc(-c2c[nH]c3ncc(-c4ccccc4)cc23)cc1C1CCCC1 (top concentration tested 10000 nM) | 0 | 3.29 | 2.42 | 3.17 |
| O=C(O)c1ccc(CN2CCC(CN[C@@H]3C[C@H]3c3ccccc3)CC2)cc1 (top concentration tested 10000 nM) | 0 | 0 | 0 | 0 |
| O=c1[nH]c(C2CCCN2)nc2c1oc1ccc(Cl)cc12 (centres undefined) (top concentration tested 10000 nM) | 0 | 0 | 5.66 | 6.39 |
| C[C@@H]1CN(CC(=O)Nc2ccc3c(c2)Cc2cccc(-c4cc(=O)cc(N5CCOCC5)o4)c2S3)C[C@H](C)O1 (top concentration tested 25000 nM) | 5.17 | 8.78 | 8.24 | 9.16 |
| NCC(=O)Nc1ccc(-n2nc(C(F)(F)F)cc2-c2ccc3c(ccc4ccccc43)c2)cc1 (top concentration tested 25000 nM) | 5.9 | 7.25 | 13.5 | 16.3 |
| Cc1ccc2nc(CN(CCN(Cc3nc4ccc(C)cc4[nH]3)Cc3nc4ccc(C)cc4[nH]3)Cc3nc4ccc(C)cc4[nH]3)[nH]c2c1 (top concentration tested 50000 nM) | 3.51 | 5.64 | 4.22 | 3.52 |
| Cc1nn(C)c(COc2ccc(N3CCN(S(=O)(=O)N(C)C)CC3)cc2)c1-c1cccc2c(CCCOc3cccc4ccccc34)c(C(=O)O)n(CCN3CCOCC3)c12 (top concentration tested 50000 nM) | 7.51 | 7.01 | 9.56 | 5.26 |
| O=c1cc(N2CCOCC2)oc2c(-c3ccccc3)cccc12 (top concentration tested 100000 nM) | 2.63 | 5.12 | 10.6 | 11.8 |
| Oc1c2ccccc2c2c3c(cccc13)N=N2 (top concentration tested 100000 nM) | 0.97 | 2.91 | 7.42 | 6.18 |
| Cn1cc(C[C@@H](N)C(=O)O)c2ccccc21 [1-methyl-D-tryptophan] (top concentration tested 5000 nM) | 0 | 0 | 0 | 0 |
| COc1cc2c(cc1O)CC[C@@H]1[C@@H]2CC[C@]2(C)[C@@H](O)CC[C@@H]12 [2-methoxyestradiol] (top concentration tested 10000 nM) | 0 | 5.9 | 6.57 | 10.6 |

| Structure (SMILES) | drug sensitivity score (HEK293sieSTAT3(Y640F) [1]) | drug sensitivity score (HEK293sieSTAT3(wt) [2]) | drug sensitivity score (HEK293sieSTAT3(Y640F) [3]) | drug sensitivity score (HEK293sieSTAT3(wt) [4]) |
| --- | --- | --- | --- | --- |
| CC/C(=C(\c1ccc(O)cc1)c1ccc(OCCN(C)C)cc1)c1ccccc1 [4-hydroxytamoxifen] (top concentration tested 10000 nM) | 6.81 | 7.36 | 6.34 | 7.39 |
| Nc1ncnc2c1nc(N)n2[C@@H]1O[C@H](CO)[C@@H](O)[C@H]1O [8-amino-adenosine] (top concentration tested 50000 nM) | 11.1 | 15.1 | 21.9 | 23.9 |
| Nc1ncnc2c1nc(Cl)n2[C@@H]1O[C@H](CO)[C@@H](O)[C@H]1O [8-chloro-adenosine] (top concentration tested 50000 nM) | 2.41 | 7.97 | 16.2 | 18.4 |
| CCCCC/C=C/C=C1/C(=O)C=C[C@@H]1C/C=C\CCCC(=O)O [15D-PGJ2] (top concentration tested 3000 nM) | 0 | 0 | 1.33 | 0 |
| COc1cc(O)c2c(c1)/C=C/C[C@H](O)[C@H](O)C(=O)/C=C\C[C@H](C)OC2=O [(5Z)-7-Oxozeaenol] (top concentration tested 10000 nM) | 2.58 | 6.67 | 3.74 | 4.51 |
| COc1ccc(S(=O)(=O)Nc2cccnc2Nc2ccc(O)cc2)cc1 [ABT-751] (top concentration tested 10000 nM) | 2.68 | 9.49 | 11.4 | 14.3 |
| Cc1ccccc1C(C(=O)NC1CCCCC1)N(C(=O)Cn1ccnc1C)c1cccc(F)c1 (centres undefined) [AGI-5198] (top concentration tested 10000 nM) | 0 | 0 | 0.76 | 1.02 |
| O=C(Nc1cccc(C(F)(F)F)c1)Nc1cc(S(=O)(=O)NC2CC2)ccc1-c1ccsc1 [AGI-6780] (top concentration tested 10000 nM) | 0 | 1.62 | 1.05 | 2.88 |
| COc1ccc2c(OCc3nnc4ccc(-c5ccccc5)nn34)ccnc2c1 [AMG-208] (top concentration tested 2500 nM) | 0.89 | 0.89 | 1.58 | 0.59 |
| CC(C)[C@@H](CS(=O)(=O)C(C)C)N1C(=O)[C@@](C)(CC(=O)O)C[C@H](c2cccc(Cl)c2)[C@H]1c1ccc(Cl)cc1 [AMG-232] (top concentration tested 1000 nM) | 0 | 0 | 0 | 0 |
| Cc1csc(-c2nnc(Nc3ccc(Oc4ncccc4-c4ccnc(N)n4)cc3)c3ccccc23)c1 [AMG-900] (top concentration tested 1000 nM) | 0 | 0 | 4.35 | 3.01 |
| CC1CCC(n2c3cnccc3c3cnc(Nc4ccc5c(n4)CCN(C(=O)CO)C5)nc32)CC1 (centres undefined) [AMG-925] (top concentration tested 1000 nM) | 0 | 2.08 | 5.44 | 5.61 |
| COCC1(CO)C(=O)C2CCN1CC2 (centres undefined) [APR-246] (top concentration tested 10000 nM) | 0 | 0 | 0 | 1.99 |
| CC(C)[C@H](C(=O)Nc1ccc(C(=O)NO)cc1)c1ccccc1 [AR-42] (top concentration tested 10000 nM) | 5.41 | 8.7 | 14.4 | 16.5 |
| CNC(=O)c1ccc(N2C(=S)N(c3cnc(C#N)c(C(F)(F)F)c3)C(=O)C23CCC3)cc1F [ARN 509] (top concentration tested 10000 nM) | 0 | 0 | 2.68 | 2.33 |
| COc1cc(N2CCC(N3CCN(C)CC3)CC2)ccc1Nc1ncnc(Nc2ccccc2S(=O)(=O)C(C)C)n1 [ASP3026] (top concentration tested 10000 nM) | 0.7 | 4.8 | 7.3 | 8.01 |
| O=C(NC1CCNCC1)c1n[nH]cc1NC(=O)c1c(Cl)cccc1Cl [AT7519] (top concentration tested 10000 nM) | 4.11 | 12.2 | 16.7 | 18.6 |
| O=C(Nc1c[nH]nc1-c1nc2ccc(CN3CCOCC3)cc2[nH]1)NC1CC1 [AT9283] (top concentration tested 1000 nM) | 0 | 0.75 | 0.91 | 1.49 |
| CN[C@@H](C)C(=O)N[C@H]1CN(C(=O)CC(C)C)CC[C@H]2CC[C@@H](C(=O)NC(c3ccccc3)c3ccccc3)N2C1=O [AT-406] (top concentration tested 10000 nM) | 12.6 | 33.2 | 8.75 | 17.9 |
| CC[C@H](CC#N)OC(=O)N[C@@H](C)c1cccc(NC(=O)Nc2ccc(-c3cnco3)c(OC)c2)c1 [AVN944] (top concentration tested 10000 nM) | 1.07 | 6.87 | 17.1 | 20.7 |
| COc1cc(N2CCN(C)CC2)ccc1Nc1nccc(-c2cn(C)c3cnccc23)n1 [AZ191] (top concentration tested 10000 nM) | 1.68 | 2.77 | 6.19 | 4.19 |
| COc1cc(OC2CCN(C)CC2)ccc1Nc1ncc2c(n1)n(C1CCCC1)c(=O)n2C [AZ 3146] (top concentration tested 10000 nM) | 4.52 | 11.4 | 8.94 | 11.3 |
| CC(C)Oc1cc(Nc2nc(N[C@@H](C)c3ccc(F)cn3)ncc2Cl)n[nH]1 [AZ-23] (top concentration tested 1000 nM) | 0 | 1.27 | 3.11 | 6.5 |
